Measurements from publication PMC5113778, “Fragment Linking and Optimization of Inhibitors of the Aspartic Protease Endothiapepsin: Fragment‐Based Drug Design Facilitated by Dynamic Combinatorial Chemistry” (Angewandte Chemie (International Ed. in English), 2016).

What was measured:
Format in all cases: biochemical
endothiapepsin [1] = target: T1, endothiapepsin (Cryphonectria parasitica, UniProt P11838); experiment: fluorescence-based protease assay adapted from HIV protease assay; crystal soaking
T1 construct: gene EAPA; mature active enzyme, monomer
T1 sequence (P11838 90-419): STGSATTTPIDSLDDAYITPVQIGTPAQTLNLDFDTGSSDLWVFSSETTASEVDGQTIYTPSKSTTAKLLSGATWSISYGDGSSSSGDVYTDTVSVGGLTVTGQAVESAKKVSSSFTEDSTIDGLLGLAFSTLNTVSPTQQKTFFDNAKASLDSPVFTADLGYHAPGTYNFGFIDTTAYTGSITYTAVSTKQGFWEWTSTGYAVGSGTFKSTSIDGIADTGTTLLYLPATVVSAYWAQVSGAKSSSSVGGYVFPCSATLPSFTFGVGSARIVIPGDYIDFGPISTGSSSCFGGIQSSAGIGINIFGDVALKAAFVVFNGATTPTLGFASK
Excerpt: fluorescence-based protease assay adapted from HIV protease assay; crystal soaking on endothiapepsin

endothiapepsin [2] = target: T1, endothiapepsin; experiment: fluorescence-based protease assay adapted from HIV protease assay; Ki presumably from IC50 (Cheng-Prusoff)
Excerpt: fluorescence-based protease assay adapted from HIV protease assay; Ki presumably from IC50 (Cheng-Prusoff) on endothiapepsin

endothiapepsin [3] = target: T1, endothiapepsin; experiment: fluorescence-based protease assay adapted from HIV protease assay
Excerpt: fluorescence-based protease assay adapted from HIV protease assay on endothiapepsin

Row | SMILES | IC50 (endothiapepsin [1]) | Ki (endothiapepsin [2]) | IC50 (endothiapepsin [3])
1 | N[C@@H](Cc1c[nH]c2ccccc12)C(=O)N/N=C/c1cccc(/C=N/NC(=O)[C@@H](N)Cc2c[nH]c3ccccc23)c1 [compound 13, bis-acylhydrazone 13] | 54 ± 0.5 nM | 25.4 ± 0.2 nM | –
2 | N[C@@H](Cc1ccccc1)C(=O)N/N=C/c1cccc(/C=N/NC(=O)[C@@H](N)Cc2ccccc2)c1 [compound 16, bis-acylhydrazone 16] | – | 980 ± 50 nM | 2100 ± 100 nM
